Measured values: patent US10221163B2 (priority 2015, dated 2019)
Read-outs that look alike come from different tables or passages of the source.

Experiments:
[1] = target: VIM-1 (Pseudomonas aeruginosa (strain ATCC 15692 / DSM 22644 / CIP 104116 / JCM 14847 / LMG 12228 / 1C / PRS 101 / PAO1), UniProt A0A0F7KYQ8); test: biochemical; conditions: CCF2-FA substrate, 30 pM enzyme, 2 hours at 25° C.
Procedure, shortened: (§1)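 Class B activity is measured in the presence of compound by fluorescence with CCF2-FA after a 2-hour incubation at 25° C. IC50 is taken from a 4-parameter fit of semi-logarithmic dose-response data.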

[2] = test system: Serratia marcescens expressing IMP-1 (CL5741); type: cell-based; conditions: IMP-1 strain CL5741, with imipenem 1 μg/ml, 95% inhibition of growth
Procedure, shortened: (§2)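 Colonies grown overnight on blood agar at 35° C were suspended in saline, diluted 1:100 into 1.1×CAMHB and dispensed. Imipenem was added to 1 μg/ml, then test compound. After 22 hours to 24 hours at 35° C, absorbance was recorded.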

[3] = test system: Escherichia coli expressing NDM-1 (CLB30005, CLB30016); type: cell-based; conditions: NDM-1 strain, with imipenem 1 μg/ml, 95% inhibition of growth
Procedure, shortened: as §2

[4] = test system: Klebsiella pneumoniae expressing VIM-1 (IHMA599644); type: cell-based; conditions: VIM-1 strain IHMA599644, with imipenem 1 μg/ml, 95% inhibition of growth
Procedure, shortened: as §2

[5] = target: IMP-1 (Serratia marcescens, UniProt P52699); test: biochemical; type: biochemical; conditions: fluorescence assay, CCF2-FA substrate, 2 pM enzyme, 2 hours at 25° C.; read-out: IMP-1 IC50
Procedure, shortened: as §1

[6] = target: NDM-1 (Klebsiella pneumoniae, UniProt C7C422); test: biochemical; type: biochemical; conditions: fluorescence assay, CCF2-FA substrate, 1 pM enzyme, 2 hours at 25° C.; read-out: NDM-1 IC50
Procedure, shortened: as §1

[7] = test system: Pseudomonas aeruginosa MB9798 vs MB9799; conditions: ratio MITC95 PA_9798/MITC95 PA_9799
Procedure, shortened: (§3)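 Steps: add fixed imipenem and/or ceftazidime (usually CLSI breakpoint) and fixed AmpC-directed class A/C inhibitor to microbroth MIC wells; titrate MBL inhibitor; record concentration regaining susceptibility for each PAO1-derived strain; divide efflux+ by efflux− value.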

[8] = test system: Pseudomonas aeruginosa efflux− (MB9799), IMP-1; type: cell-based; conditions: concentration restoring susceptibility to imipenem at 2 μg/mL in the presence of a class A, C, D serine β-lactamase inhibitor closely related to relebactam
Procedure, shortened: as §3

[9] = test system: Pseudomonas aeruginosa efflux+ (MB9798), IMP-1; type: cell-based; conditions: concentration restoring susceptibility to imipenem at 2 μg/mL in the presence of a class A, C, D serine β-lactamase inhibitor closely related to relebactam
Procedure, shortened: as §3

[10] = fluorescence assay, read-out: VIM-1 IC50

IMP-1, sequence (P52699 whole entry, looked up, species assumed): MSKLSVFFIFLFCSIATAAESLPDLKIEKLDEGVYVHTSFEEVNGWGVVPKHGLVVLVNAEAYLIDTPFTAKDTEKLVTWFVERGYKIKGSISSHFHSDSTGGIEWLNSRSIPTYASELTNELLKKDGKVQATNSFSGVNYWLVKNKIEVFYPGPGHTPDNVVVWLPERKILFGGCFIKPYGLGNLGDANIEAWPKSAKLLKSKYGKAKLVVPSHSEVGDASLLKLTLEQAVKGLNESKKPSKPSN
NDM-1, sequence (C7C422 whole entry, looked up, species assumed): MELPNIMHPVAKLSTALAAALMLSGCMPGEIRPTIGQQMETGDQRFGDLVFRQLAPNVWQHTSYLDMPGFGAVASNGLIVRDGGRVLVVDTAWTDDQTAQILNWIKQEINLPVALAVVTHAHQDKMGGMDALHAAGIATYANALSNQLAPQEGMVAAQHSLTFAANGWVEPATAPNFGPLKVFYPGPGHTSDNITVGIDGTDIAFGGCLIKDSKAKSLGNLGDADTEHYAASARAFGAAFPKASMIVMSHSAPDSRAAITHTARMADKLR

Row | SMILES | IC50 ([1]; VIM-1 IC50, fluorescence assay) [nM] | Serratia marcescens MITC95 [2] [µM] | Escherichia coli MITC95 [3] [µM] | Klebsiella pneumoniae MITC95 [4] [µM] | IC50 [5] [nM] | IC50 [6] [nM] | Efflux ratio [7] | P. aeruginosa expressing IMP-1, efflux − (MB9799) MITC95 [8] [µM] | P. aeruginosa expressing IMP-1, efflux + (MB9798) MITC95 [9] [µM] | IC50 [1, 10] [nM]
1 | C[C@H](CN)NS(=O)(=O)c1ccc(-c2cccc(N)n2)c(-c2nn[nH]n2)c1S(N)(=O)=O [Example 318, (R)—N1-(1-aminopropan-2-yl)-4-(6-aminopyridin-2-yl)-3-(2H-tetrazol-5-yl) benzene-1,2-disulfonamide] | 0.142 | 3.125 | 0.7813 | 3.125 | 0.704 | 0.158 | 1.00 | 1.563 | 1.563 | 
2 | Nc1ccc2cccc(-c3ccc(S(=O)(=O)N[C@@H]4CNC[C@@H]4N)c(S(N)(=O)=O)c3-c3nn[nH]n3)c2n1 [Example 319, N^1-((3R,4S)-4-aminopyrrolidin-3-yl)-4-(2-aminoquinolin-8-yl)-3-(2H-tetrazol-5-yl)benzene-1,2-disulfonamide] |  | 1.563 | 1.563 | 1.563 | 0.265 | 0.0483 | 1.00 | 0.7813 | 0.7813 | 0.206
3 | N[C@H]1CNC[C@H]1NS(=O)(=O)c1ccc(-c2cnc3cc[nH]c3c2)c(-c2nn[nH]n2)c1S(N)(=O)=O [Example 320] | 0.296 | 0.7813 | 0.7813 | 3.125 | 1.21 | 0.0902 | 2.00 | 0.7813 | 1.563 | 
4 | Nc1ncc(-c2ccc(S(=O)(=O)N[C@@H]3CNC[C@@H]3N)c(S(N)(=O)=O)c2-c2nn[nH]n2)s1 [Example 321, N^1-((3R,4S)-4-aminopyrrolidin-3-yl)-4-(2-aminothiazol-5-yl)-3-(2H -tetrazol-5-yl)benzene-1,2-disulfonamide] | 0.958 | 1.563 | 0.7813 | 3.125 | 1.25 | 0.376 | 2.00 | 0.7813 | 1.563 | 
5 | N[C@H](CO)c1nc2c(-c3ccc(S(=O)(=O)N[C@H]4CNC[C@H]4N)c(S(N)(=O)=O)c3-c3nn[nH]n3)cccc2[nH]1 [Example 323, 4-(2-((S)-1-amino-2-hydroxyethyl)-1H-benzo[d]imidazol-4-yl)-N1-((3S,4R)-4-aminopyrrolidin-3-yl)-3-(2H-tetrazol-5-yl)benzene-1,2-disulfonamide] | 0.321 | 3.125 | 1.563 | 3.125 | 3.39 | 0.219 | 1.00 | 1.563 | 1.563 | 
6 | Nc1ccc2cccc(-c3ccc(S(=O)(=O)N[C@H]4CNC[C@H]4N)c(S(N)(=O)=O)c3-c3nn[nH]n3)c2n1 [Example 324, N1-((3S,4R)-4-aminopyrrolidin-3-yl)-4-(2-aminoquinolin-8-yl)-3-(1H-tetrazol-5-yl)benzene-1,2-disulfonamide] |  | 0.7813 | 1.563 | 1.563 | 0.213 | 0.0387 | 1.00 | 0.7813 | 0.7813 | 0.13
